In patent US5900476A, “Therapeutic domains of van Willebrand factor” (The Scripps Research Institute, priority 1992, dated 1999):

How the values were obtained:
[1] = system: GPIbα; assay: Inhibition of 125I LJ-Ib1 antibody binding to platelets, no modulator
Protocol: (§1) To assess the inhibitory activity of p5E extracts on antibody binding, a concentration of LJ-Ib1 was first selected which would, in the absence of p5E extracts, provide half-maximal binding.
(§2) LJ-Ib1 was iodinated by the procedure of Fraker, D.J. et al., Biochem. Biophys. Res. Commun., 80, 849-857 (1978) using I^125 from Amersham, Arlington Heights, IL and Iodogen (Pierce Chemical Co., Rockford, IL). Washed platelets were prepared by the albumin density gradient technique of Walsh, et al., Br. J. Haematol., 36, 281-298 (1977), and used at a count of 1 x 10^8 /ml.
The p5E polypeptide extract was purified according to the procedure of Example 4 including final purification of the urea-solubilized inclusion body preparation by dialysis against 6.0M guanidine and urea solutions followed by Q-Sepharose® chromatography.
To evaluate binding, platelets were incubated for 30 minutes at 22-25° C. with LJ-Ib1 (10 μg/ml) and concentrations of purified p5E protein (.002-10.0 μMolar) as indicated in FIGS. 3A and 3B. Inhibition was plotted in the presence of 2 μg/ml botrocetin, Sigma Chemical Co., St. Louis, MO, (FIG. 3B) and in the absence of botrocetin (FIG. 3A).
Less than 5 percent of the ^125 I label bound to the platelets was contributed by labelled substances other than LJ-Ib1 as determined by binding competition experiments in the presence of a 100 fold excess of unlabelled LJ-Ib1. Background labelling was subtracted from data points. Binding of ^125 I LJ-Ib1 was expressed as a percentage of a control assay lacking recombinant polypeptides. […] It is known that botrocetin induces in circulating multisubunit von Willebrand factor and single subunits thereof a conformational change which enhances or permits binding to the GPIbα receptor. […] Structural similarity is therefore indicated.
The interaction the mutant molecules with GPIbα was evaluated using an assay (Sugimoto, M. et al., Biochemistry, 30, 5202-5209 (1991)) based on inhibition of binding of antibody LJ-Ib1 to platelets. The corresponding IC50 values (concentration of fragment required to inhibit 50% of antibody binding) are presented in Table 2 (no modulator) and Table 3 (botrocetin added).
The interaction of rvWF^441-733 with GPIbα was measured by the ability of rvWF^441-733 to inhibit the binding of an anti-GPIbα monoclonal antibody, LJ-IB1, to platelets. This assay, previously described in detail, (Sugimoto, M. et al., Biochemistry, 30, 5202-5208 (1991)) offers the advantage that the binding of LJ-Ib1, unlike that of native vWF, is not dependent on the presence of modulators, like ristocetin or botrocetin. Binding by vWF^441-733 to GPIbα is thought to block the region of GPIbα to which LJ-Ib1 binds.

[2] = system: GPIbα; assay: Inhibition of 125I LJ-Ib1 antibody binding to platelets in the presence of botrocetin; conditions: botrocetin 2 μg/ml; LJ-Ib1 10 μg/ml; purified p5E protein; read-out: 50% inhibition of 125I LJ-Ib1 binding to platelets
Protocol: as §1
as §2, with “/ml. […]” for “/ml.”
Less than 5 percent of the ^125 I label bound to the platelets was contributed by labelled substances other than LJ-Ib1 as determined by binding competition experiments in the presence of a 100 fold excess of unlabelled LJ-Ib1. […] Binding of ^125 I LJ-Ib1 was expressed as a percentage of a control assay lacking recombinant polypeptides. […]
The interaction the mutant molecules with GPIbα was evaluated using an assay (Sugimoto, M. et al., Biochemistry, 30, 5202-5209 (1991)) based on inhibition of binding of antibody LJ-Ib1 to platelets. […]
The interaction of rvWF^441-733 with GPIbα was measured by the ability of rvWF^441-733 to inhibit the binding of an anti-GPIbα monoclonal antibody, LJ-IB1, to platelets. […]

[3] = system: NMC-4 antibody; assay: Immunoblotting with conformation-dependent monoclonal antibody NMC-4; type: binding, murine
Protocol: Polypeptides expressed from p7E, p7D and pJD18 were further characterized by immunoblotting ("Western blotting") according to a standard procedure Burnett et al., A. Anal. Biochem., 112, 195-203, (1981) and as recommended by reagent suppliers. Samples containing approximately 10 μg of protein from the urea-solubilized and dialyzed inclusion body extracts of host cells (containing p7E, p7D and pJD18 plasmids) were subjected to electrophoresis on 10% polyacrylamide gels, Laemli, U.K. Nature, 227, 680-685 (1970), in the presence of 2% concentration of sodium dodecyl sulfate.
The proteins were blotted and immobilized onto a nitrocellulose sheet (Schleicher and Schuell, Keene, NH) and the pattern was then visualized using immunoreactivity.
The secondary antibody (^125 I-rabbit anti-mouse IgG), labelled by the method of Fraker, P.J. et al. Biochem. Biophys. Res. Commun., 80, 849-857 (1978)), was incubated for 60 minutes at 25° C. on the nitrocellulose sheet. After rinsing, the sheet was developed by autoradiography.
NMC-4 however, has as its epitope the domain of the von Willebrand factor subunit which contains the glycoprotein Ib binding site. […] Id. at 17903. […]

[4] = oxidized form (Cys509-Cys695 bond), absence of modulators, range of results over n experiments, read-out: (Oxidized) IC50
[5] = reduced/alkylated form, absence of modulators, range of results over n experiments, read-out: (Reduced/alkylated) IC

| Substance | IC50 [1, 4] [µM] | Ability to inhibit LJ-Ib1 binding to platelets / affinity for GPIbα relative to rvWF^441-733 ([1]; reduced and alkylated form, Table 2) | IC50 [1, 5] [µM] | IC50 [2] [µM] | Increase in binding affinity for NMC-4 compared to cysteine-free p7E species ([3]; nonreducing conditions, single chain species, immunoblot) [fold] | Affinity for NMC-4 after electrophoresis under reducing conditions ([3]; reducing conditions, 100 mM DTT) | IC50 of reduced and alkylated form relative to oxidized form ([1]; absence of modulator, FIG. 3A) | IC50 ([1]; without botrocetin, LJ-Ib1 10 μg/ml, purified p5E protein, read-out: Fifty percent inhibition of 125I LJ-Ib1 binding to platelets) [µM] |
| --- | --- | --- | --- | --- | --- | --- | --- | --- |
| rvWF^441-696: C-terminal deletion fragment of the p5E vWF polypeptide terminating at residue 696 | 1 to 1.3 | greatly reduced ability to inhibit LJ-Ib1 binding to platelets | > 4 | – | – | – | – | – |
| rvWF^441-733: recombinant vWF residue 441-733 fragment from p5E; Cys 459, 462, 464, 471, 474 replaced by Gly; Cys509-Cys695 retained; oxidized or reduced/alkylated | 3 to 5 | – | 0.07 to 0.3 | < 0.1 | ~120 | remarkably decreased affinity for NMC-4 | more than ten fold lower | 10 |
| rvWF^441-700: C-terminal deletion fragment of the p5E vWF polypeptide terminating at residue 700 | 2 to 3.1 | – | 0.5 | – | – | – | – | – |
| rvWF^441-704: C-terminal deletion fragment of the p5E vWF polypeptide terminating at residue 704 | 2.6 to 3.2 | – | 0.03 to 0.04 | – | – | – | – | – |
